Here are results for 6 molecules from article PMC4893694, “Identification of potent maturation inhibitors against HIV-1 clade C” (Scientific Reports, 2016).

SMILES strings stand for the structures.

Data set [1] in a line: Cytotoxicity assay (CellTitre-Blue) in HUT-R5. It counts as cell-based. The note with it: human, HUT-R5 cells; HUT-R5, 4 days. The method, then: (§1) Cytotoxicity assays were performed using the CellTitre-Blue Cell Viability Assay kit (Promega, USA) as per manufacturer’s recommendations. HEK-293T and HUT-R5 cell lines were maintained in the presence of serial dilutions of MIs for 4 days and treated with CellTitre-Blue reagent for 4 h at 37 °C. The fluorescent signals were recorded at 530/25excitation and 590/35emission using BioTek microplate reader.

The subject of data set [2] is HIV-1 clade C molecular clone ZM247 (CA-SP1 processing). The note with it: HEK-293T transfected with ZM247, increasing concentrations 0.1–5.0 μM, western blot. On the procedure: (§2) Viral supernatants were pelleted and separated on SDS-PAGE followed by western blotting using HIV-IgG antibody.
(§3) 24 h post-transfection, the culture medium was replaced with fresh DMEM and incubated for another 2 h. MIs were maintained in the culture throughout transfection. […] The clarified supernatants were filtered (pore size 0.45 μm filter disc) to remove residual cellular contaminants. For determination of viral infectivity, the unconcentrated virus was used to infect TZM-bl cells.
(§4) To measure accumulation of CA-SP1, immunoblot analysis of virus-associated proteins was performed. The virus pellet was resuspended in radioimmunoprecipitation assay (RIPA) buffer (50 mM Tris-HCl pH 8.0, 150 mM sodium chloride, 1.0% NP-40, 0.5% sodium deoxycholate, 0.1% SDS) containing 1 × protease inhibitor cocktail (Roche, Germany). […] The proteins were visualized by enhanced chemiluminescence (Pierce, USA) and the bands were quantified using ImageJ software (http://imagej.nih.gov/ij/).
A general note: A western blot detects proteins with antibodies after separation by electrophoresis.

In data set [3] the test system is HIV-1 clade C molecular clone IndieC1 (CA-SP1 processing). The note with it: HEK-293T transfected with IndieC1, increasing concentrations 0.1–5.0 μM, western blot. On the procedure:
as §2, §3, §4

Data set [4] relates to HIV-1 clade B molecular clone NL4-3 (CA-SP1 processing). The note with it: HEK-293T transfected with NL4-3, increasing concentrations 0.1–5.0 μM, western blot. The method, then:
as §2, §3, §4

Data set [5] concerns HIV-1 clade C K3016 virus. Nature of the data set: Antiviral assay, spreading HIV-1 infection in HUT-R5 T-cell line (p24 reduction). It counts as cell-based. The settings on record: Human immunodeficiency virus 1, T-cell, 192 h; HUT-R5 cells infected with K3016, 8 days, HIV-1 p24 in supernatant; representative of two independent experiments. The method, then:
HUT-R5 cells were infected with K3016 virus and cultured for eight days in the presence of serial dilutions of each compound. Antiviral activity was monitored by reduction in HIV-1 p24 levels in culture supernatants.
HUT-R5 cells were infected with normalized HIV-1 clade C K3016 virus stocks at 37 °C for 1 h. Cells were then maintained for 8 days in the presence of serial dilutions of MIs. After 8 days, the HIV-1 p24 concentration in the virus supernatants was measured to monitor virus replication.

Data set [6] has as its system HIV-1 clade C molecular clone K3016 (CA-SP1 processing). The data set is classed as cell-based. The settings on record: for activity (CA-SP1 accumulation): K3016, 10 nM; for accumulation of the CA-SP1 processing intermediate over a range of doses: K3016, 2–50 nM. On the procedure:
as §2, §3, §4

Data set [7] in a line: Cytotoxicity assay (CellTitre-Blue) in HEK-293T. The data set is classed as cell-based. The settings on record: human, HEK-293T cells. The method, then:
as §1

As usually defined, the CC50 is the concentration giving 50% cytotoxicity. The IC50 is the concentration that inhibits the measured activity by half. A higher IC50 goes with weaker potency in that assay. For `C=C(C)[C@@H]1CC[C@]2(C(=O)O)CC[C@]3(C)[C@H](CC[C@@H]4[C@@]5(C)CC[C@H](OC(=O)CC(C)(C)C(=O)O)C(C)(C)[C@@H]5CC[C@]43C)[C@@H]12` [BVM, 3-0-(3′-3′-dimethylsuccinyl) betulinic acid, reference compound], the CC50 at 4 days in data set [1] is greater than 1 µM; in data set [7], greater than 5 µM. Also, the “accumulation of p25 (CA-SP1)” value in data set [2] is “resistant”; in data set [3] it was “resistant”; in data set [4], “dose-dependent accumulation of p25”; in data set [6] (HEK-293T transfected with K3016, increasing concentrations 0.1–5.0 μM, western blot), “resistant”. This molecule yielded an IC50 in data set [5] greater than 1 µM.
For the molecule `C=C(C)C1CCC2(CCNCCCN3CCCC3)CCC3(C)C(CCC4C5(C)CCC(OC(=O)CC(C)(C)CC(=O)O)C(C)(C)C5CCC43C)C12` (stereo not shown) [Compound 7h], the 50% cytotoxic concentration (CC50) at 4 days in data set [1] and in data set [7] was greater than 1 µM throughout. This molecule also yielded an IC50 in data set [5] of 0.0113 µM.
As for `C=C(C)C1CCC2(CCNC3CCN(C)CC3)CCC3(C)C(CCC4C5(C)CCC(OC(=O)CC(C)(C)CC(=O)O)C(C)(C)C5CCC43C)C12` (stereo not shown) [Compound 7j], the CC50 at 4 days in data set [1] and in data set [7] was greater than 1 µM each time. The molecule further had an IC50 in data set [5] of 0.0059 µM.
As for `C=C(C)C1CCC2(CCNCCN(C)C)CCC3(C)C(CCC4C5(C)CCC(OC(=O)CC(C)(C)CC(=O)O)C(C)(C)C5CCC43C)C12` (stereo not shown) [Compound 7m], the CC50 at 4 days in data set [1] and in data set [7] was greater than 1 µM throughout. In data set [5], this molecule displayed an IC50 of 0.0014 µM. The “activity (CA-SP1 accumulation)” value in data set [6] was roughly 40%. The “accumulation of the CA-SP1 processing intermediate over a range of doses” value (“accumulation … over a range of doses” for short) in data set [6] is on record as “dose-dependent accumulation”.
Regarding `C=C(C)C1CCC2(CCNC3CCN(CC)CC3)CCC3(C)C(CCC4C5(C)CCC(OC(=O)CC(C)(C)CC(=O)O)C(C)(C)C5CCC43C)C12` (stereo not shown) [Compound 7r], the 50% cytotoxic concentration (CC50) at 4 days in data set [1] was greater than 1 µM. Also, in data set [5], the IC50 is 0.0015 µM. Also, in data set [6], the “activity (CA-SP1 accumulation)” value is roughly 40% and the “accumulation … over a range of doses” value is on record as “dose-dependent accumulation”. In data set [7], this molecule showed a cytotoxic concentration (CC50) at 4 days greater than 1 µM.
Regarding `C=C(C)C1CCC2(CCNC3CCN(CCO)CC3)CCC3(C)C(CCC4C5(C)CCC(OC(=O)CC(C)(C)CC(=O)O)C(C)(C)C5CCC43C)C12` (stereo not shown) [Compound 7s], the CC50 at 4 days in data set [1] is greater than 1 µM. In data set [5], this molecule returned an IC50 of 0.0013 µM. In data set [6], the “activity (CA-SP1 accumulation)” value is roughly 40% and the “accumulation … over a range of doses” value is recorded as “dose-dependent accumulation”. This molecule came in with a CC50 at 4 days in data set [7] greater than 1 µM.
